US8927533B2, “Thio derivatives bearing lactams as potent HDAC inhibitors and their uses as medicaments” (SIGMA-TAU Industrie Farmaceutiche Riunite S.p.A., priority 2011, dated 2015)

What was measured:
HDAC6 = target: T1, HDAC6 (Homo sapiens, UniProt Q9UBN7); experiment: HDAC enzymatic assay, HDAC6; format: biochemical
T1 sequence (Q9UBN7 1-1215): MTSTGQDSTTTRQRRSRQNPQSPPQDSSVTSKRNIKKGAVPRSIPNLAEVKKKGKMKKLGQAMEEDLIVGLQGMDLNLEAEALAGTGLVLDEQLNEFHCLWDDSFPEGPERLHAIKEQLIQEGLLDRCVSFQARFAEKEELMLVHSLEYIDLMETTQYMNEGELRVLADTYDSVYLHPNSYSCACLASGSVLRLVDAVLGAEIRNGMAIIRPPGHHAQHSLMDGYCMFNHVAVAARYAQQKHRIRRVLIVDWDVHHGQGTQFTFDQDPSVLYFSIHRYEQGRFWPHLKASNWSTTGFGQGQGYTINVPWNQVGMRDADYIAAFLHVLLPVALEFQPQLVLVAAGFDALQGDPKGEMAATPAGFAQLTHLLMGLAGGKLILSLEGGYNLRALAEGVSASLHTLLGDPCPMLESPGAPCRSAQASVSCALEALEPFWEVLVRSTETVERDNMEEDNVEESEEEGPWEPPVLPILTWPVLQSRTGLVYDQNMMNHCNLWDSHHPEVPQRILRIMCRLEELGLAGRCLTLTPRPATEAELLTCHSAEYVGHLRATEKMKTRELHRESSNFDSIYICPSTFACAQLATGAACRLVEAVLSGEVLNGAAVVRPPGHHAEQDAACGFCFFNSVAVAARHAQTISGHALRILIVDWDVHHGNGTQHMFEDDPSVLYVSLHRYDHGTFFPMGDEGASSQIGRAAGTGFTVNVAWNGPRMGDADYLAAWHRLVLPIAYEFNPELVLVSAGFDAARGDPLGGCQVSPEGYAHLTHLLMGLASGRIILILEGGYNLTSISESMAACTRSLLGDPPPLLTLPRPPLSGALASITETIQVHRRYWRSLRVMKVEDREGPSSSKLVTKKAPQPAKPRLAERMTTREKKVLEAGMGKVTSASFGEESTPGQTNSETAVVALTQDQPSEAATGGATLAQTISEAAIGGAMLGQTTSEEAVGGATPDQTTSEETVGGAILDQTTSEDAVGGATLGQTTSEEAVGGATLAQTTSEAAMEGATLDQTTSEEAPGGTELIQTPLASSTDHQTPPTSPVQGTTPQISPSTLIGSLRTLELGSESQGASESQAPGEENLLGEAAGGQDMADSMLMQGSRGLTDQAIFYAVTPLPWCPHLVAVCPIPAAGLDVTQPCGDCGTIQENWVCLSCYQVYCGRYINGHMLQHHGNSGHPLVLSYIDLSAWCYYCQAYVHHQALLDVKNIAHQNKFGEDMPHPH
Method: (§1) Each compound was dissolved in DMSO, and progressively diluted solutions were used for testing. […] Upon its deacetylation, the fluorophore was released given rise to fluorescence emission which was detected by a fluorimeter, and the IC50 values of the compounds were determined by analyzing dose-response inhibition curves.

[1] = system: eleven HDAC isolated human isoforms; experiment: HDAC profiling, whole isoform panel; format: biochemical
Method: as §1

[2] = system: HCT116 colon cancer cells; experiment: Antitumour activity, HCT116 xenograft (Example 48); format: in vivo, CD1 nude mice; details: 50 mg/10 ml/kg i.p., qd×5/w×3w
Method: (§4) The tested derivatives were administered as a suspension in PBS/DMSO/Cremophor EL (Sigma): 85/10/5 (volume percentage). The antitumour activity was determined by measuring tumour diameters with a Vernier calliper according to the Formula TV=d^2×D/2
(§5) where d and D are the shortest and longest diameters, respectively.
(§6) When tumours reached a volume of about 1000 mm^3, mice were sacrificed by cervical dislocation. The efficacy of the drug was assessed as the tumour volume inhibition according to the Formula reported underneath:
(§7) Body weight recording was carried out to evaluate body weight loss as calculated in the equation underneath:
(§8) Wherein BW day x corresponds to the mean weight at day x of the experiment meanwhile BW day 1 corresponds to the mean weight at the first day of the experiment.

[3] = system: MDA-MB231 breast tumour cells; experiment: Cytotoxicity extended panel, MDA-MB231; format: cell-based; details: Homo sapiens, MDA-MB-231, cell survival, 72 h, sulphorodamine B
Method: (§2) Cells were seeded in 96-well tissue culture plates at approximately 10% confluence. They were allowed to attach and recover for at least 24 h. Compounds of the present invention were then added to each well at various concentrations in order to define cell survival inhibition IC50. The plates were incubated for 72 h at 37° C., after which time they were washed 3 times by removal of the supernatant. 200 μl of PBS and 50 μl of cold 80% TCA were added and the plates were incubated on ice for at least 1 h. TCA was removed and the plates were washed 3 times by immersion in distilled water. They were then dried on paper at 40° C. for 5 min. 200 μl of 0.4% sulphorodamine B in 1% acetic acid were added. The plates were incubated at room temperature for further 30 min. Sulphorodamine B was removed, and the plates were washed 3 times by immersion in 1% acetic acid and were dried on paper at 40° C. for 5 min. Then 200 μl Tris 10 mM were added. The plates were kept under magnetic stirring for 20 min. Cell survival was determined by means of optical density by a Multiskan spectrofluorimeter at 540 nm. The amount of cells killed was calculated as the percentage decrease in sulphorodamine B binding compared to control cultures. The IC50 values (reported in Table 5) were calculated with the “ALLFIT” program.

U937 leukemia cells = experiment: Cytotoxicity extended panel, U937; format: cell-based; details: Homo sapiens, U-937, suspension cells, 72 h
Method: (§3) Cells were seeded in 96-well tissue culture plates at approximately 10% confluence. They were allowed to attach and recover for at least 24 h. Compounds of the present invention were then added to each well at various concentrations in order to define cell survival inhibition IC50. The plates were incubated for 72 h at 37° C., after which time they were washed 3 times by removal of the supernatant. 200 μl of PBS and 50 μl of cold 80% TCA were added and the plates were incubated on ice for at least 1 h. TCA was removed and the plates were washed 3 times by immersion in distilled water. They were then dried on paper at 40° C. for 5 min. 200 μl of 0.4% sulphorodamine B in 1% acetic acid were added. The plates were incubated at room temperature for further 30 min. Sulphorodamine B was removed, and the plates were washed 3 times by immersion in 1% acetic acid and were dried on paper at 40° C. for 5 min. Then 200 μl Tris 10 mM were added. The plates were kept under magnetic stirring for 20 min. Cell survival was determined by means of optical density by a Multiskan spectrofluorimeter at 540 nm. The amount of cells killed was calculated as the percentage decrease in sulphorodamine B binding compared to control cultures. The IC50 values (reported in Table 5) were calculated with the “ALLFIT” program. […]

[4] = system: MDA-MB436 breast tumour cells; experiment: Cytotoxicity extended panel, MDA-MB436; format: cell-based; details: Homo sapiens, MDA-MB-436, cell survival, 72 h, sulphorodamine B
Method: as §2

[5] = system: histone H4 acetylation in NCI-H460 cells; experiment: Histone H4 acetylation, Western Blot
Method: (§9) The experiments were conducted using ECL Plus Western blotting detection reagents (from Amersham Biosciences) and the intensity of the bands were analyzed by using a computed phosphoimage analyzer (PhosphoImager; Molecular Dynamics, Sunnyvale, Calif., U.S.A.).

[6] = system: K562 chronic myeloid leukemia cells; experiment: Cytotoxicity extended panel, K562; format: cell-based; details: Homo sapiens, suspension cells, 72 h
Method: as §3

[7] = system: HCT116 colon cancer cells; experiment: Cytotoxicity, sulphorodamine B, HCT116; details: Homo sapiens, HCT-116, read-out: HCT116 cell line IC50 (μM)
Method: (§10) The plates were incubated for 24 h at 37° C., after which they were washed 3 times by removal of the supernatant and addition of PBS. The plates were then incubated for further 48 h at 37° C. 200 μl PBS and 50 μl of cold 80% TCA were added and the plates were incubated on ice for at least 1 h. TCA was removed and the plates were washed 3 times by immersion in distilled-water. They were then dried on paper at 40° C. for 5 min. 200 μl of 0.4% sulphorodamine B in 1% acetic acid were added. The plates were incubated at room temperature for further 30 min. Sulphorodamine B was removed, and the plates were washed 3 times by immersion in 1% acetic acid and were dried on paper and at 40° C. for 5 min. Then 200 μl Tris 10 mM were added. The plates were kept under magnetic stirring for 20 min. Cell survival was determined by means of optical density by a Multiskan spectrofluorimeter at 540 nm. The amount of cells killed was calculated as the percentage decrease in sulphorodamine B binding compared to control cultures.

[8] = system: NCI-H460 non-small cell lung carcinoma cells; experiment: Cytotoxicity, sulphorodamine B, H460; details: Homo sapiens, NCI-H460, read-out: H460 cell line IC50 (μM)
Method: as §10

[9] = system: H929 multiple myeloma cells; experiment: Antitumour activity, H929 xenograft (Example 48); format: in vivo, CD1 nude mice; details: 50 mg/10 ml/kg i.p., qd×5/w×3w
Method: as §4, §5, §6, §7, §8

[10] = system: MV4-11 acute monocytic leukemia cells; experiment: Cytotoxicity extended panel, MV4-11; format: cell-based; details: Homo sapiens, suspension cells, 72 h
Method: as §3

NCI-H460 NSCLC = experiment: Antitumour activity, NCI-H460 xenograft (Example 48); details: 50 mg/10 ml/kg i.p., qd×5/w×3w
Method: as §4, §5, §6, §7, §8

[11] = system: A2780 ovarian tumour cells; experiment: Cytotoxicity extended panel, A2780; format: cell-based; details: Homo sapiens, cell survival, 72 h, sulphorodamine B
Method: as §2

[12] = system: α-tubulin acetylation in NCI-H460 cells; experiment: Tubulin acetylation, Western Blot; details: cytoplasmic extracts
Method: as §9

HUT78 T-Lymphoma cells = experiment: Cytotoxicity extended panel, HUT78; format: cell-based; details: Homo sapiens, suspension cells, 72 h
Method: as §3

[13] = system: MCF-7 breast tumour cells; experiment: Cytotoxicity extended panel, MCF-7; format: cell-based; details: Homo sapiens, MCF7, cell survival, 72 h, sulphorodamine B
Method: as §2

[14] = system: HSC3 head and neck tumour cells; experiment: Cytotoxicity extended panel, HSC3; format: cell-based; details: Homo sapiens, HSC-3, cell survival, 72 h, sulphorodamine B
Method: as §2

[15] = system: SKOV-3 ovarian tumour cells; experiment: Cytotoxicity extended panel, SKOV-3; format: cell-based; details: Homo sapiens, SK-OV-3, cell survival, 72 h, sulphorodamine B
Method: as §2

`CC(C)(C)OC(=O)N[C@@H](CCCCCS)C(=O)NC1CCCC1` [((S)-1-cyclopentylcarbamoyl-6-mercapto-hexyl)-carbamic acid tert-butyl ester, reference compound] was tested, and the “activity on HDAC6 compared with the described compounds” value (HDAC6) was “much lower activity on HDAC6 than most of the herein described compounds” and the “HDAC isoform selectivity profile” value [1] was “confirmed its HDAC6 selectivity profile”.

In the case of `CC(=O)SCCCCC[C@H](NC(=O)[C@@H]1CCCC(=O)N1)C(=O)Nc1ccccc1` [Example 14, Thioacetic acid S—{(S)-6-[((S)-6-oxo-piperidine-2-carbonyl)-amino]-6-phenylcarbamoyl-hexyl}ester], the BWL % [2] is reported as 3%, the TVI % [2] is reported as 44% and the IC50 [3] is reported as 0.23 µM. For the same compound, the IC50 (U937 leukemia cells) was 0.049 µM, the IC50 [4] was 0.18 µM and the EC50 ([5]; Homo sapiens, NCI-H460, read-out: EC50 μM H4 acetylation) was 0.1 µM. The “concentration inducing H4 hyper-acetylation” value ([5]; NCI-H460 cells, Western Blot, 'as low as') was 100 nM, the IC50 [6] was 0.19 µM and the IC50 [7] was less than 0.5 µM. The IC50 [8] was less than 0.5 µM, the BWL % [9] was 11% and the TVI % [9] was 30%. The IC50 [10] was 0.19 µM, the BWL % (NCI-H460 NSCLC) was 2% and the TVI % (NCI-H460 NSCLC) was 36%. For the same compound, the IC50 [11] was 0.062 µM, the “hyper-acetylation of cytoplasmatic α-tubulin” value [12] was “comparable to that observed with the reference compound SAHA” and the IC50 (HUT78 T-Lymphoma cells) was 0.48 µM. It also gave an IC50 [13] of 0.19 µM, an IC50 [14] of 0.77 µM and an IC50 [15] of 0.38 µM.
